System: Mycobacterium tuberculosis H37Rv growth inhibition, no glycerol
Assay: Mycobacterium tuberculosis H37Rv growth inhibition, no glycerol, confirmatory dose response (AID 449764);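 also: growth read after 7 days of incubation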
Conditions: for IC90: measured here: IC90 growth inhibition

Row | Structure (SMILES) | IC50 [µM] | IC90 [µM]
1 | C#CCn1c(=NC(=O)c2cc(Cl)sc2Cl)sc2cc(S(N)(=O)=O)ccc21 | 12 | 34.1
2 | CC(C)Cc1ccc(C(C)C(N)=NCCc2ccccc2)cc1 (stereo unspecified) | 24.1 | 27.8
3 | N#Cc1c(-c2ccccc2)c(-c2ccccc2)nn(CC(=O)NNC(=O)Nc2ccc(Cl)c(Cl)c2)c1=O | 47.9 | 54.7
4 | Cc1cc(Cl)ccc1NNC(=O)CCc1ccccc1 | 84.1 | > 100
5 | O=[N+]([O-])c1ccc(C2Oc3ccccc3C3CC(c4ccccc4)=NN32)s1 (stereo unspecified) | 7.13 | 9.52
6 | S=C(NCCc1ccccc1)NN=C1CCCCCC1 | 45.8 | 50.1
7 | NC(=S)N=Nc1ccc(NN=C(N)N)cc1 | 19.3 | 27.6
8 | Cc1ccc2nc(-c3cccc(Br)c3)cc(C(=O)NC3=NCCS3)c2c1 | 27.8 | 43.2
9 | CC[C@H](C)[C@@H]1O[C@@]2(C=CC1C)CC1C[C@@H](CC=C(C)C(O[C@H]3CC(OC)C(O[C@H]4CC(OC)C(O)C(C)O4)C(C)O3)C(C)C=CC=C3CO[C@@H]4C(O)C(C)=C[C@@H](C(=O)O1)[C@]34O)O2 (stereo partly specified) | 16.5 | 27.3
10 | COc1cc2cc(C(c3nnnn3C(C)(C)C)N3CCc4ccccc43)c(=O)[nH]c2cc1OC (stereo unspecified) |  | > 100
11 | Nc1ccc(C(=O)OCCCc2nc3cc4ccccc4cc3[nH]2)cc1 | 37.2 | 59.3
12 | COc1cc(OC)cc(-c2cc3nc(C)c(CCC(=O)NC(C)CCc4ccco4)c(C)n3n2)c1 (stereo unspecified) | 53.2 | 90.5
13 | CC(C)(C)c1csc(NC(=O)c2c(F)c(F)c(F)c(F)c2F)n1 | 21 | 29.4
14 | C(=C\c1nccc2c1[nH]c1ccccc12)/c1ccccc1 | 31.2 | 42.7
15 | CN1C(=O)/C(=C/c2cccc(Cl)c2)Sc2ccc(C(=O)N3CCCC3)cc21 | 20.6 | 49.9
16 | COCc1nnc(NC(=O)C2CC(=O)N(c3ccc(C)c(Cl)c3)C2)s1 (stereo unspecified) | 76.5 | > 100
17 | CC(C)(C)c1ccc(C(=O)NC(=S)NNC(=O)COc2ccccc2)cc1 | 28.8 | 42.9
18 | CC1CCCC(C)N1/N=C/c1c[nH]c2ccc(Br)cc12 (stereo unspecified) | 22.7 | 29.1
19 | Nc1n[nH]c(C2CC2)c1N=Nc1ccc(Cl)cc1 | 32.4 | 54.3
20 | CCCCn1c(=O)c(C(=O)Nc2ncccc2C)c(O)c2ccccc21 | 17 | 22.1
21 | CCCCNc1c(-c2ccc(SC3CCCCC3)c(OC)c2)nc2ccc(C)cn12 | 11.8 | 13.5

Row | Structure (SMILES) | IC50 [µM] | IC90 [µM]
22 | Oc1ccccc1/C=N/NC(=S)NC1CC2CC1C1C=CCC21 (stereo unspecified) | 11.9 | 18
23 | CCOC(=O)c1cnc(-n2nc(C)cc2C)nc1NNc1cc(C)nc(-c2ccccc2)n1 | 74.6 | 93.7
24 | COc1ccc(C[C@H](N)C(=O)N[C@H]2[C@@H](O)[C@H](n3cnc4c(N(C)C)ncnc43)O[C@@H]2CO)cc1 | 3.95 | 5.82
25 | CCCCCCCNC(=O)c1ccc(N2CCC3(CC2)OCCO3)c([N+](=O)[O-])c1 | 48.3 | 67.2
26 | NC1=NC[C@H](Cc2ccc(O)cc2)N1CCc1cccc2ccccc12 | 40.9 | 45.6
27 | CC1CC(C)CN(C(=O)C2CCC(CNc3c(N4CCCCC4)c(=O)c3=O)CC2)C1 (stereo unspecified) | 45.8 | > 100
28 | COc1ccc(-c2cc(C3CCN(Cc4cccc(C(F)(F)F)c4)CC3)[nH]n2)cc1 | 13.3 | 24.9
29 | COc1ccccc1NC(=O)CN1CCN(CC(=O)Nc2ccc3c(c2)OCO3)CC1 | 39.2 | 60
30 | Cc1cc(Cl)ccc1OCCCC(=O)NO | 65.1 | > 100
31 | Cc1nc(N2CCC(C)CC2)c2oc3ccccc3c2n1 | 22.6 | 30.3
32 | CCOC(=O)c1ccc(NC2=CC(=O)C(=O)c3ccccc32)cc1 | 37.7 | 48.3
33 | CCCc1cnc(NCCNCC(O)COc2ccc(Cl)c(Cl)c2)nc1 (stereo unspecified) | 24.2 | 27.7
34 | CO/N=C(\Cn1ncc(N2CCCC2)c(Cl)c1=O)c1ccc(Cl)cc1 | 23.7 | 26.9
35 | COC(=O)c1cc(=O)n(-c2ccc(F)cc2)c(=Nc2ccc(F)cc2)s1 | 0.46 | 1.24
36 | Cc1cc(C)n(C(=O)c2ccc([N+](=O)[O-])cc2[N+](=O)[O-])n1 | 8.89 | 12.3
37 | C=C[C@]1(C)C[C@@H](OC(=O)CSCCN(CC)CC)[C@]2(C)C(C)CC[C@]3(CCC(=O)[C@H]32)[C@@H](C)[C@@H]1O (stereo partly specified) | 5.69 | 8.16
38 | COc1ccc2[nH]c3c(C)c4ccncc4c(C)c3c2c1 | 1.33 | 1.68
39 | Cc1cc(C)nc(Sc2ncnc(N)c2[N+](=O)[O-])n1 | 19.3 | 25.5
40 | CCCn1c(N2CCN(Cc3ccc(Cl)cc3)CC2)nc2ccccc21 | 25.2 | 38
41 | O=C(Nc1ccn(Cc2ccccc2F)n1)c1ccc(COc2ccccc2Cl)cc1 | 11.2 | 16.1
42 | Cc1ccc(-c2cc(-c3ccccc3C)[nH]n2)c(O)c1 | 38.4 | > 100

Row | Structure (SMILES) | IC50 [µM] | IC90 [µM]
43 | CCOC(=O)c1[nH]c2ccc(F)cc2c1NC(=O)CN1CCN(C/C=C/c2ccccc2)CC1 | 28.4 | 42.8
44 | CCCOc1ccc(C(=O)NC(=S)NCc2cccnc2)cc1 | 35.1 | 45.7
45 | COc1ccccc1N1CCN(/N=C/C(Cl)=C/c2ccccc2)CC1 | 89.6 | > 100
46 | C=C(C)CSc1cc(C)c(C#N)c2nc3ccccc3n12 | 31.5 | 52.3
47 | Cc1ccc(/C(N)=N/OC(=O)N2c3ccccc3Sc3ccccc32)cc1 | 92.7 | > 100
48 | O=C(c1cc(COc2ccc(F)cc2F)on1)N1CCCC(c2ccccc2)C1 (stereo unspecified) | 53.8 | > 100
49 | CCCSc1nn2c(=O)c3ccccc3nc2s1 | 14.7 | 28.1
50 | Oc1ccc(-[n+]2c(-c3ccccc3)cc(-c3ccccc3)cc2-c2ccccc2)cc1 | 14.3 | 17.2
51 | Cn1c2ccccc2c2cc(C(=O)NNC(=O)CCl)sc21 | 4.41 | 8.11
52 | O=C(C1=C[C@@H](c2csc3ccccc23)C[C@@H](OCCCCO)O1)N1CCN(Cc2ccc3c(c2)OCO3)CC1 | 33.9 | 53.6
53 | CCCC(=O)OCCNc1cc(SCCC(=O)OC)c2nonc2c1[N+](=O)[O-] | 5.85 | 6.66
54 | O=C(c1ccc(CNc2c(N3CCCC3)c(=O)c2=O)cc1)N1CC=C(c2ccccc2)CC1 | 1.43 | 1.62
55 | O=C(CSc1nnnn1C1CCCCC1)Nc1nc2c(s1)CCCC2 | 46.9 | 53.1
56 | COc1ccc(OC)c(Nc2nc(-c3sc(C)nc3C)cs2)c1 | 70.1 | > 100
57 | O=[N+]([O-])c1ccc(Sc2cc[n+]([O-])c3ccccc23)c([N+](=O)[O-])c1 | 40.5 | 56.1
58 | CCOC(=O)c1ccccc1NC(=O)COc1coc(CN2CCc3ccccc32)cc1=O | 27.1 | 47.8
59 | O=C(Nc1cccc(-c2nc3ccccc3s2)c1)c1cc(-n2cnnc2)ccc1Cl | 14 | 22
60 | CCCCNC(=S)N(C)/N=C/c1ccc2c(c1)OCO2 | 11.8 | 21.6
61 | Cn1nc(C(F)(F)F)c2cc(NC(=O)OCC(C)(C)C)sc21 | 22.8 | 43.1

From PubChem BioAssay AID449764 (Southern Research Specialized Biocontainment Screening …, 2010)
